“Also recorded” adds a separate entry of the source.
Experiments:
[1] = tested on: mice with experimentally induced heart failure; details: Pyr-apelin-13 2 mg/kg/day; between weeks 1 and 3; n=6
Method: Left anterior decending artery ligation. Animals were anesthetized with 2-3% inhalational isofluorane and 50 mg/kg sodium pentobarbital intraperitoneally. […] The animals were placed in the left lateral decubitus position and a thoracotomy performed at the 4th intercostal space. Peak inspiratory pressures were monitored and maintained between 10-14 cm of water. The lung was retracted and the pericardium incised. The left coronary artery was ligated with a 7-0 prolene suture until blanching of the distal left ventricle was noted. Heart rate and temperature were monitored during the procedure. After ascertaining complete hemostasis, the chest wall was closed in four layers. The animals were weaned from the ventilator and anesthetic and then extubated and monitored in the recovery area.
Treadmill exercise. […] In mice, a commonly used commercially available setup (Columbus Instruments) employs a moving belt encased in a sealed Plexiglas enclosure, allowing for measurement of oxygen consumption and carbon dioxide production. Stimulus devices consist of a metal shock grid. Metabolic measurements are performed using an open circuit volumetric gas analysis system (Oxymax System; Columbus Instruments). The low dead space of this circuit allows quick gas equilibration with a t1/2 of 30 s, which is highly suitable for use during graded exercise protocols. […]

C57B/16 mice = assay: Magnetic resonance imaging after intraperitoneal apelin-12 injection; format: in vivo, mouse; details: post apelin-12 300 μg/kg intraperitoneal, one hour prior to scanning; n=9
Method: Magnetic resonance imaging. […] Platinum needle ECG leads were inserted subcutaneously. Respiration was monitored by means of a pneumatic pillow sensor positioned against the abdomen. Mouse body temperature was maintained during scanning at 37° C. by a flow of heated air thermostatically controlled by a rectal temperature probe. Magnetic resonance images were acquired on a 4.7T Oxford magnet controlled by a Varian Inova console (Varian, Palo Alto, Calif.) using a transmit-receive, quadrature, volume coil with an inner diameter of 3.5 cm. Image acquisition was gated to respiration and to the ECG R wave (SA Instruments, Stony Brook, N.Y.). Coronal and sagittal scout images led to the acquisition of multiple contiguous 1 mm thick, short axis slices orthogonal to the interventricular septum. […] Planimetry measurements of end diastolic and end systolic dimension were derived offline from short axis views of the left ventricle at the level of the papillary muscles using ImageJ software (National Institutes of Health, Bethesda, Md.). Ejection fraction was calculated as [[…]. Data Analysis. […] Exact p values are reported for all comparisons.

rats = details: intravenous bolus injection in rats; Tatemoto et al., Lee et al.; cited from earlier work
[2] = tested on: AT1R and APJ heterodimerization; assay: AT1R-APJ receptor heterodimerization by immunoprecipitation; format: cell-based; details: addition of apelin
Method: Cells were immediately lysed.
Immunoprecipitation and Western Blotting Immunoprecipitation was performed as previously described (REF). In brief, cells were lysed using 10× Cell Lysis Buffer (Cell Signaling Technologies CITY). Lysates were precleared with protein G and immunoprecipitation was performed with the respective antibodies at concentration of 1 mg/mL for 24 hrs at 4C. Protein G agarose was added and incubated for additional 2 hours. Western blotting on SDS-PAGE gels were performed as previously described, and the bands were visualized using the enhanced chemiluminescence system (Amersham Biosciences).

AT1R = biological target: T1, AT1R (Rattus norvegicus, UniProt P25095); assay: Competitive ligand binding with FAM-labeled AngII in HEK-293 cells; details: unlabeled ligand 100 nM; HEK-293 cells transfected with AT1R
T1 construct: expressed in transfected cells; host or cells: HEK-293
T1 sequence (P25095 1-359): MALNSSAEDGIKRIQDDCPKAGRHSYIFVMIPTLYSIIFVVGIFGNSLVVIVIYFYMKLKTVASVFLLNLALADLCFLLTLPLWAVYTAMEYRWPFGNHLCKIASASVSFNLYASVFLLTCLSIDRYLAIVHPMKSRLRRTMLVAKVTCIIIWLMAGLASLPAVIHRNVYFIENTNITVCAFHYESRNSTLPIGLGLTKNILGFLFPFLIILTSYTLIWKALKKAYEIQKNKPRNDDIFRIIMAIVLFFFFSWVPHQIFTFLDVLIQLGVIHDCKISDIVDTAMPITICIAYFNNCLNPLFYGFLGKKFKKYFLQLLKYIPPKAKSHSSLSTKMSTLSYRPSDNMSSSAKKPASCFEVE

[3] = tested on: mice given angiotensin II and isoproterenol infusions; assay: Neurohormonal cardiomyopathy model, echocardiography; format: in vivo, mouse; details: wild type mice
Method: Echocardiography. Two dimensional and M mode echocardiography was carried out using thea GE Vivid ultrasound platform with the small animal probe (13 MHz). […] After shaving of the anterior chest, mice were warmed using a heat lamp. Short axis views of the left ventricle were captured at the level of the papillary muscles in 2D and M modes. Analysis was carried out offline and fractional shortening calculated as [LVEDD−LVESD]/LVEDD where LVEDD is left ventricular end diastolic diameter (measured at the tip of the mitral valve leaflets) and LVESD is left ventricular end systolic diameter.
Neurohormonal cardiomyopathy model. […] All mice were age 12-14 weeks.

eNOS protein = details: experimental groups incl. apelin treated animals
Method: Immunoblotting. Lung homogenate (n≧3 per group) were homogenized on ice for 20 seconds in lysis buffer (50 mmol/L Tris, pH 7.5, 150 mmol/L NaCl, 0.1% SDS, 0.5% deoxycholate, 1% Nonidet P-40) containing protease inhibitors (Complete; Boehringer Mannheim) and 1 mmol/L phenylmethylsulfonyl fluoride. Protein lysates (8 μg) were resolved using SDS-PAGE and transferred to polyvinylidene difluoride membranes. Membranes were incubated with a 1:2000 dilution of mouse anti-eNOS monoclonal antibody (Cell Signaling, Location), followed by a 1:2500 dilution of rabbit anti-mouse horseradish peroxidase-conjugated secondary antibody (Promega). Protein bands were visualized by chemiluminescence.

[4] = tested on: Erk1/2 phosphorylation in RASM; details: AngII stimulated RASM
ApoE-KO mice = assay: AngII induced abdominal aortic aneurysm formation model; format: in vivo, mouse
Method: Animals. Mice were maintained in temperature-controlled (20° C. to 22° C.) environment with a 12-hour light-dark cycle. Sterile water and standard chow diet were available ad libitum. All mice were C57BL/6J ApoE-KO male mice (Jackson Laboratories, Bar Harbor, […].) between the ages of 8-12 weeks. […] Animal procedures were carried out in accordance with the Institutional Review Board Guidelines at Stanford University.
Abdominal aortic aneurysm formation, sudden death and vein graft procedure. […] Abdominal aortic aneurysm was defined as ≧50% enlargement of the maximal abdominal aorta diameter. Mice that were found dead without any preceding signs of suffering were defined as sudden death.

For apelin, which “average time to exhaustion / exercise capacity” value [1] is on record?
The value was “marked, statistically significant increase”.

And the Ejection fraction (C57B/16 mice)?
Its Ejection fraction is 67.7±1.6%.

What about the “heart rate (inverse of R-R interval of electrocardiogram)” value (C57B/16 mice) of the same substance?
The value was 559±19 beats per minute.

What about the “left ventricular end diastolic area” value (C57B/16 mice) of the same substance?
Its value is 0.104±0.005 cm2.

What about the mean arterial pressure (rats) of the same substance?
Its mean arterial pressure is “decrease”.

And the “AngII induced receptor heterodimerization” value [2]?
Its value is “did not affect”.

And the “competition for binding of FAM-AngII (10 nM) to AT1R” value (AT1R)?
Its value is “did not compete; also recorded: could not compete; also recorded: does not compete”.

What about the heart failure phenotype ([3]; apelin infused concomitantly with angiotensin II and isoproterenol) of the same substance?
Its heart failure phenotype is “completely abrogated; also recorded: abrogated completely; also recorded: ameliorates the heart failure phenotype completely”.

And the “fractional shortening (post)” value ([3]; pyr-apelin-13 2 mg/kg/day with angiotensin II and isoproterenol, 7 day minipumps)?
Its value is 42.6±1.3%.

And the “eNOS protein levels in aortas” value (eNOS protein)?
The value was “no difference”.

And the Erk1/2 phosphorylation [4]?
Its Erk1/2 phosphorylation is “decreased”.

What about the “animals with aneurysm formation” value (ApoE-KO mice; AngII plus apelin treatment) of the same substance?
The value was 1/12.

What about the “incidence of AAA formation” value (ApoE-KO mice; apelin added to AngII infused mice) of the same substance?
The value was 8%.

And the “incidence of AAA formation within 4 weeks” value (ApoE-KO mice; single agent infusion)?
Its value is “did not observe AAA formation”.

From US7947280B2 (priority 2003, dated 2011)
